Reference: PubChem BioAssay (NCI)
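Assay format: 96-well plates, 48-hour exposure. Here, GI50 denotes the concentration required for 50% inhibition of growth. The concentration for full growth arrest is given as TGI.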

Experiments:
Test in all cases: NCI anticancer screen, dose series, 48 h
786-0 renal = system: 786-0 renal
A498 renal = system: A498 renal
A549 NSCLC = system: A549 NSCLC
ACHN renal = system: ACHN renal
BT-549 breast = system: BT-549 breast
CAKI-1 renal = system: CAKI-1 renal
CCRF-CEM leukemia = system: CCRF-CEM leukemia
COLO 205 colon = system: COLO 205 colon
DU-145 prostate = system: DU-145 prostate
EKVX NSCLC = system: EKVX NSCLC
HCC-2998 colon = system: HCC-2998 colon
HCT-116 colon = system: HCT-116 colon
HCT-15 colon = system: HCT-15 colon
HL-60(TB) leukemia = system: HL-60(TB) leukemia
HOP-62 NSCLC = system: HOP-62 NSCLC
HOP-92 NSCLC = system: HOP-92 NSCLC
HS 578T breast = system: HS 578T breast
HT29 colon = system: HT29 colon
IGROV1 ovarian = system: IGROV1 ovarian
KM12 colon = system: KM12 colon
LOX IMVI melanoma = system: LOX IMVI melanoma
M14 melanoma = system: M14 melanoma
MALME-3M melanoma = system: MALME-3M melanoma
MCF7 breast = system: MCF7 breast
MDA-MB-231 breast = system: MDA-MB-231 breast
MDA-MB-435 = system: MDA-MB-435
MOLT-4 leukemia = system: MOLT-4 leukemia
NCI-H226 lung = system: NCI-H226 lung
NCI-H23 lung = system: NCI-H23 lung
NCI-H460 lung = system: NCI-H460 lung
NCI-H522 lung = system: NCI-H522 lung
NCI/ADR-RES ovarian = system: NCI/ADR-RES ovarian
OVCAR-3 ovarian = system: OVCAR-3 ovarian
OVCAR-4 ovarian = system: OVCAR-4 ovarian
OVCAR-5 ovarian = system: OVCAR-5 ovarian
OVCAR-8 ovarian = system: OVCAR-8 ovarian
PC-3 prostate = system: PC-3 prostate
RPMI-8226 leukemia = system: RPMI-8226 leukemia
RXF 393 renal = system: RXF 393 renal
SF-268 CNS = system: SF-268 CNS
SF-295 CNS = system: SF-295 CNS
SF-539 CNS = system: SF-539 CNS
SK-MEL-2 melanoma = system: SK-MEL-2 melanoma
SK-MEL-28 melanoma = system: SK-MEL-28 melanoma
SK-MEL-5 melanoma = system: SK-MEL-5 melanoma
SK-OV-3 ovarian = system: SK-OV-3 ovarian
SN12C renal = system: SN12C renal
SNB-19 CNS = system: SNB-19 CNS
SNB-75 CNS = system: SNB-75 CNS
SR leukemia = system: SR leukemia
SW-620 colon = system: SW-620 colon
T-47D breast = system: T-47D breast
TK-10 renal = system: TK-10 renal
U251 CNS = system: U251 CNS
UACC-257 melanoma = system: UACC-257 melanoma
UACC-62 melanoma = system: UACC-62 melanoma
UO-31 renal = system: UO-31 renal

`O=C(O)c1ccc(NCc2nc3cc(Cl)c(Cl)cc3[nH]2)cc1` showed a GI50 (786-0 renal) greater than 100 µM, a TGI (786-0 renal) greater than 100 µM and a GI50 (A498 renal) greater than 100 µM. For the same molecule, the TGI (A498 renal) was greater than 100 µM, the GI50 (A549 NSCLC) was greater than 100 µM and the TGI (A549 NSCLC) was greater than 100 µM. For the same molecule, the GI50 (ACHN renal) was greater than 100 µM, the TGI (ACHN renal) was greater than 100 µM and the GI50 (BT-549 breast) was greater than 100 µM. It also gave a TGI (BT-549 breast) greater than 100 µM, a GI50 (CAKI-1 renal) greater than 100 µM and a TGI (CAKI-1 renal) greater than 100 µM. For the same molecule, the GI50 (CCRF-CEM leukemia) was greater than 100 µM, the TGI (CCRF-CEM leukemia) was greater than 100 µM and the GI50 (COLO 205 colon) was greater than 100 µM. It also gave a TGI (COLO 205 colon) greater than 100 µM, a GI50 (DU-145 prostate) greater than 100 µM and a TGI (DU-145 prostate) greater than 100 µM. The GI50 (EKVX NSCLC) was greater than 100 µM, the TGI (EKVX NSCLC) was greater than 100 µM and the GI50 (HCC-2998 colon) was 72.3 µM. The TGI (HCC-2998 colon) was greater than 100 µM, the GI50 (HCT-116 colon) was greater than 100 µM and the TGI (HCT-116 colon) was greater than 100 µM. For the same molecule, the GI50 (HCT-15 colon) was 96.9 µM, the TGI (HCT-15 colon) was greater than 100 µM and the GI50 (HL-60(TB) leukemia) was greater than 100 µM. The TGI (HL-60(TB) leukemia) was greater than 100 µM, the GI50 (HOP-62 NSCLC) was greater than 100 µM and the TGI (HOP-62 NSCLC) was greater than 100 µM. It also gave a GI50 (HOP-92 NSCLC) greater than 100 µM, a TGI (HOP-92 NSCLC) greater than 100 µM and a GI50 (HS 578T breast) greater than 100 µM. It also gave a TGI (HS 578T breast) greater than 100 µM, a GI50 (HT29 colon) greater than 100 µM and a TGI (HT29 colon) greater than 100 µM. For the same molecule, the GI50 (IGROV1 ovarian) was greater than 100 µM, the TGI (IGROV1 ovarian) was greater than 100 µM and the GI50 (KM12 colon) was greater than 100 µM. The TGI (KM12 colon) was greater than 100 µM, the GI50 (LOX IMVI melanoma) was greater than 100 µM and the TGI (LOX IMVI melanoma) was greater than 100 µM. The GI50 (M14 melanoma) was greater than 100 µM, the TGI (M14 melanoma) was greater than 100 µM and the GI50 (MALME-3M melanoma) was 0.424 µM. The TGI (MALME-3M melanoma) was 1.69 µM, the GI50 (MCF7 breast) was 6.03 µM and the TGI (MCF7 breast) was greater than 100 µM. The GI50 (MDA-MB-231 breast) was greater than 100 µM, the TGI (MDA-MB-231 breast) was greater than 100 µM and the GI50 (MDA-MB-435) was greater than 100 µM. It also gave a TGI (MDA-MB-435) greater than 100 µM, a GI50 (MOLT-4 leukemia) greater than 100 µM and a TGI (MOLT-4 leukemia) greater than 100 µM. For the same molecule, the GI50 (NCI-H226 lung) was greater than 100 µM, the TGI (NCI-H226 lung) was greater than 100 µM and the GI50 (NCI-H23 lung) was greater than 100 µM. For the same molecule, the TGI (NCI-H23 lung) was greater than 100 µM, the GI50 (NCI-H460 lung) was greater than 100 µM and the TGI (NCI-H460 lung) was greater than 100 µM. For the same molecule, the GI50 (NCI-H522 lung) was 66.2 µM, the TGI (NCI-H522 lung) was greater than 100 µM and the GI50 (NCI/ADR-RES ovarian) was greater than 100 µM. For the same molecule, the TGI (NCI/ADR-RES ovarian) was greater than 100 µM, the GI50 (OVCAR-3 ovarian) was 60.7 µM and the TGI (OVCAR-3 ovarian) was greater than 100 µM. The GI50 (OVCAR-4 ovarian) was 40.9 µM, the TGI (OVCAR-4 ovarian) was greater than 100 µM and the GI50 (OVCAR-5 ovarian) was greater than 100 µM. The TGI (OVCAR-5 ovarian) was greater than 100 µM, the GI50 (OVCAR-8 ovarian) was greater than 100 µM and the TGI (OVCAR-8 ovarian) was greater than 100 µM. It also gave a GI50 (PC-3 prostate) greater than 100 µM, a TGI (PC-3 prostate) greater than 100 µM and a GI50 (RPMI-8226 leukemia) greater than 100 µM. It also gave a TGI (RPMI-8226 leukemia) greater than 100 µM, a GI50 (RXF 393 renal) greater than 100 µM and a TGI (RXF 393 renal) greater than 100 µM. The GI50 (SF-268 CNS) was greater than 100 µM, the TGI (SF-268 CNS) was greater than 100 µM and the GI50 (SF-295 CNS) was greater than 100 µM. It also gave a TGI (SF-295 CNS) greater than 100 µM, a GI50 (SF-539 CNS) greater than 100 µM and a TGI (SF-539 CNS) greater than 100 µM. For the same molecule, the GI50 (SK-MEL-2 melanoma) was 5.5 µM, the TGI (SK-MEL-2 melanoma) was 41.6 µM and the GI50 (SK-MEL-28 melanoma) was 3.77 µM. For the same molecule, the TGI (SK-MEL-28 melanoma) was greater than 100 µM, the GI50 (SK-MEL-5 melanoma) was 93.4 µM and the TGI (SK-MEL-5 melanoma) was greater than 100 µM. It also gave a GI50 (SK-OV-3 ovarian) greater than 100 µM, a TGI (SK-OV-3 ovarian) greater than 100 µM and a GI50 (SN12C renal) greater than 100 µM. For the same molecule, the TGI (SN12C renal) was greater than 100 µM, the GI50 (SNB-19 CNS) was greater than 100 µM and the TGI (SNB-19 CNS) was greater than 100 µM. For the same molecule, the GI50 (SNB-75 CNS) was greater than 100 µM, the TGI (SNB-75 CNS) was greater than 100 µM and the GI50 (SR leukemia) was 69.6 µM. For the same molecule, the TGI (SR leukemia) was greater than 100 µM, the GI50 (SW-620 colon) was greater than 100 µM and the TGI (SW-620 colon) was greater than 100 µM. It also gave a GI50 (T-47D breast) greater than 100 µM, a TGI (T-47D breast) greater than 100 µM and a GI50 (TK-10 renal) greater than 100 µM. The TGI (TK-10 renal) was greater than 100 µM, the GI50 (U251 CNS) was greater than 100 µM and the TGI (U251 CNS) was greater than 100 µM. It also gave a GI50 (UACC-257 melanoma) of 5.28 µM, a TGI (UACC-257 melanoma) of 77.6 µM and a GI50 (UACC-62 melanoma) greater than 100 µM. The TGI (UACC-62 melanoma) was greater than 100 µM, the GI50 (UO-31 renal) was greater than 100 µM and the TGI (UO-31 renal) was greater than 100 µM.
